Results as given in patent US11873298B2, “Compounds and uses thereof” (JANSSEN PHARMACEUTICA NV, priority 2017, dated 2024).

Columns and labels:
[1] = tested on: yeast strains expressing the human α-synuclein; details: reference compound, earlier work; cited from earlier work
SCD1 = molecular target: T1, SCD1 (Homo sapiens, UniProt O00767); assay: Growth of yeast surviving solely on human SCD1; assay type: cell-based
T1 construct: host or cells: S. cerevisiae ole1Δ strain (W303 pdr1Δ pdr3Δ background), plasmid pRS316 with TDH3 promoter and CYC1 terminator
T1 sequence (O00767 1-359): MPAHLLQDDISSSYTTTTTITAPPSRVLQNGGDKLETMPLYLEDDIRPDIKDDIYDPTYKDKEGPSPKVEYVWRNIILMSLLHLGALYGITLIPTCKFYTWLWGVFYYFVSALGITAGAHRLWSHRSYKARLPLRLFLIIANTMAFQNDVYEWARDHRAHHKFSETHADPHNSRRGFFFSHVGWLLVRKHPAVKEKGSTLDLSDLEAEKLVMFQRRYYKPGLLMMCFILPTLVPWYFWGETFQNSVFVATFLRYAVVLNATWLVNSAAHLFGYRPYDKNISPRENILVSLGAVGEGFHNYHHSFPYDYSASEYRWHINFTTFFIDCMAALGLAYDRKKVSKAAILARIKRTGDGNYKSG
Procedure: (§1) FIG. 6 is a series of graphs showing that commercial Scd inhibitors target human SCD1/SCD5 in yeast. Yeast surviving solely on yeast OLE1, or human SCD1 or SCD5, were treated with four commercial Scd inhibitors at indicated concentrations. Data are expressed as a percent of the DMSO-treated condition.
(§2) FIG. 7 is a series of graphs showing that 1,2,4-oxadiazoles target human SCD1 and SCD5. Three “SCD” strains expressing yeast OLE1 or human SCD1 or SCD5 were treated with five representative 1,2,4-oxadiazoles and a cycloheximide toxicity control at concentrations indicated on the log10 x-axis. The y-axis indicates the percent of the DMSO-treated condition. […] Approximately one half of all (250) 1,2,4-oxadiazoles tested inhibited SCD1 or SCD5 in a manner that was reversed by oleic/palmitoleic acid treatment.

yeast OLE1 = molecular target: T2, yeast OLE1 (Saccharomyces cerevisiae, UniProt P21147); assay: Growth of yeast surviving solely on yeast OLE1; assay type: cell-based
T2 construct: expressed in transfected cells; host or cells: S. cerevisiae ole1Δ strain (W303 pdr1Δ pdr3Δ background), plasmid pRS316 with TDH3 promoter and CYC1 terminator
T2 sequence (P21147 1-510): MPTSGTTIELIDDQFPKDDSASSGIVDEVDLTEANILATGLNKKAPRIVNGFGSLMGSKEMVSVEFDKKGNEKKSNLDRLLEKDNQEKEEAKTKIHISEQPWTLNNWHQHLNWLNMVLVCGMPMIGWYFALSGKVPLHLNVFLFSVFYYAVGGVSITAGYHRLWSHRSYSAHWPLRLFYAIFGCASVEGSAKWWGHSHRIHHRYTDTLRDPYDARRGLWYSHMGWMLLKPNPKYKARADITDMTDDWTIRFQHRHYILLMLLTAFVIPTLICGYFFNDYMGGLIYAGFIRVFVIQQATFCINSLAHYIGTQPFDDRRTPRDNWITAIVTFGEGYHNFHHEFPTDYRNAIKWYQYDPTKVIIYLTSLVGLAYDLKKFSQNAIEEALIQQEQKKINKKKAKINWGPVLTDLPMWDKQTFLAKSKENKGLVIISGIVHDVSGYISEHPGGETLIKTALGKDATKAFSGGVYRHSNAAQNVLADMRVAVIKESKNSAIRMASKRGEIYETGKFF
Procedure: as §1, §2

SCD5 = molecular target: T3, SCD5 (Homo sapiens, UniProt Q86SK9); assay: Growth of yeast surviving solely on human SCD5; assay type: cell-based
T3 construct: host or cells: S. cerevisiae ole1Δ strain (W303 pdr1Δ pdr3Δ background), plasmid pRS316 with TDH3 promoter and CYC1 terminator
T3 sequence (Q86SK9 1-330): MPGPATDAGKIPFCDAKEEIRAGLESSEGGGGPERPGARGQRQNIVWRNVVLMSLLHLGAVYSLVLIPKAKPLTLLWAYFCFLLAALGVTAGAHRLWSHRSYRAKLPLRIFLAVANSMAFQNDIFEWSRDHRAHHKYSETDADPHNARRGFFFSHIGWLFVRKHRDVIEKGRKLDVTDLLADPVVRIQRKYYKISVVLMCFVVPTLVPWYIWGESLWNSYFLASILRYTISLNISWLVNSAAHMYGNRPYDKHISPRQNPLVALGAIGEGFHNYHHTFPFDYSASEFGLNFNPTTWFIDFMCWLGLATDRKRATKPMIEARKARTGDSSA
Procedure: as §1, §2

SMILES	rescue of αSyn toxicity in yeast models [1]	growth of SCD1-expressing yeast (percent of the DMSO-treated condition) (SCD1)	growth of the strain expressing yeast OLE1 (percent of the DMSO-treated condition) (yeast OLE1)	growth of SCD5-expressing yeast (percent of the DMSO-treated condition) (SCD5)
C=CC[C@@H]1/C=C(\C)C[C@H](C)C[C@H](OC)[C@H]2O[C@@](O)(C(=O)C(=O)N3CCCC[C@H]3C(=O)O[C@H](/C(C)=C/[C@@H]3CC[C@@H](O)[C@H](OC)C3)[C@H](C)[C@@H](O)CC1=O)[C@H](C)C[C@@H]2OC [FK506, tacrolimus]	rescue αSyn toxicity			
C[C@@H]1C[C@@H]([C@H](O)CC2CC(=O)NC(=O)C2)C(=O)[C@@H](C)C1 [Cyclohexamide, cycloheximide]		inhibited growth of all three strains with the same potency	inhibited growth of all three strains with the same potency	inhibited growth of all three strains with the same potency
